The test system of one assay is HCT-116. Briefly: Cytotoxicity against human HCT116 cells assessed as reduction in cell viability incubated for 24 hrs by CCK8 assay. The following applies: HCT-116, 24 h. On the technique in general: Tetrazolium dyes change colour on reduction, which living cells bring about.
The next assay concerns A549. The assay is described as follows: Cytotoxicity against human A549 cells assessed as reduction in cell viability incubated for 24 hrs by CCK8 assay. The following applies: A549, 24 h.
The subject of another assay is MCF7. The assay is described as follows: Cytotoxicity against human MCF7 cells assessed as reduction in cell viability incubated for 24 hrs by CCK8 assay. The following applies: MCF7, 24 h.

Drawing on ChEMBL document CHEMBL4043164, “Design, synthesis and biological evaluation of novel antitumor spirotetrahydrothiopyran-oxindole derivatives as potent p53-MDM2 inhibitors” (Bioorg Med Chem, 2017), this text covers IC50 for 19 compounds.

As usually defined, the IC50 is the concentration that inhibits the measured activity by half.

Turning to `COc1ccc(C2=N[C@H](c3ccc(Cl)cc3)[C@H](c3ccc(Cl)cc3)N2C(=O)N2CCNC(=O)C2)c(OC(C)C)c1`, the IC50 in the assay with HCT-116 is 28.4 µM; in the assay with A549, 10 µM; with MCF7, 14.9 µM.

As to `COc1ccc(N2C[C@H]3[C@@H](CS[C@]4(C(=O)Nc5cccc(Br)c54)[C@@H]3c3ccc(Br)cc3)CC2=O)cc1`, the results for the IC50 in the assay on HCT-116, in the assay on A549 and in the assay on MCF7 were 8.3 µM, 4.3 µM and 3 µM, respectively.

On to `O=C1C[C@@H]2CS[C@]3(C(=O)Nc4cccc(Br)c43)[C@H](c3ccc(Br)cc3)[C@H]2CN1c1ccccc1`, for which the values for the IC50 in the assay with HCT-116, with A549 and in the assay on MCF7 were 8.6 µM, 4.2 µM and 4 µM, respectively.

Regarding `COC(=O)C[C@@H]1CS[C@]2(C(=O)Nc3cccc(Br)c32)[C@H](c2ccc(Br)cc2)[C@H]1CNc1ccccc1F`, the IC50 in the assay with HCT-116 was determined as 10.5 µM; in the assay on A549 it was 4.2 µM; with MCF7, 3.6 µM.

For `O=C1Nc2cccc(Br)c2[C@@]12SC[C@@H](CCO)[C@H](CO)[C@H]2c1ccc(Br)cc1`, the IC50 in the assay on HCT-116 was 19.1 µM; in the assay on A549, 16.5 µM; in the assay with MCF7, 13.5 µM.

Take `COC(=O)C[C@@H]1CS[C@]2(C(=O)Nc3cccc(Br)c32)[C@H](c2ccc(Br)cc2)[C@H]1CNc1cccc(F)c1`: the figures for the concentration for half-maximal inhibition (IC50) in the assay with HCT-116, with A549 and with MCF7 were 8.6 µM, 3.5 µM and 2.8 µM, respectively.

Consider `CCOc1ccc(N2C[C@H]3[C@@H](CS[C@]4(C(=O)Nc5cccc(Br)c54)[C@@H]3c3ccc(Br)cc3)CC2=O)cc1`, for which the IC50 in the assay with HCT-116 came to 10.4 µM; with A549 it was 2.6 µM; in the assay with MCF7, 3.2 µM.

In the case of `O=C1C[C@@H]2CS[C@]3(C(=O)Nc4cccc(Br)c43)[C@H](c3ccc(Br)cc3)[C@H]2CN1c1cccc(F)c1`, the results for the IC50 with HCT-116, in the assay on A549 and with MCF7 were 9.5 µM, 3.5 µM and 3.8 µM, respectively.

With `CN1CCN(c2ccc(N3C[C@H]4[C@@H](CS[C@]5(C(=O)Nc6cccc(Br)c65)[C@@H]4c4ccc(Br)cc4)CC3=O)cc2)CC1`, the values for the IC50 with HCT-116, in the assay on A549 and with MCF7 were 8.8 µM, 6.3 µM and 5.9 µM, respectively.

`O=C1C[C@@H]2CS[C@]3(C(=O)Nc4cccc(Br)c43)[C@H](c3ccc(Br)cc3)[C@H]2CN1c1ccc(N2CCOCC2)cc1`: the IC50 with HCT-116 amounted to 4.3 µM; in the assay on A549 it was 2.6 µM; in the assay on MCF7 it was 2.4 µM.

`Cc1ccc(N2C[C@H]3[C@@H](CS[C@]4(C(=O)Nc5cccc(Br)c54)[C@@H]3c3ccc(Br)cc3)CC2=O)cc1`: the IC50 in the assay with HCT-116 came to 5.1 µM; in the assay with A549, 4.6 µM; in the assay with MCF7 it was 3 µM.

`O=C1C[C@@H]2CS[C@]3(C(=O)Nc4cccc(Br)c43)[C@H](c3ccc(Br)cc3)[C@H]2CN1c1ccc(Cl)cc1`: the IC50 was 8 µM in the assay with HCT-116, 4.8 µM in the assay with A549 and 4.2 µM with MCF7.

`O=C1C[C@@H]2CS[C@]3(C(=O)Nc4cccc(Br)c43)[C@H](c3ccc(Br)cc3)[C@H]2CN1c1ccc(F)cc1F`: the IC50 amounted to 9.8 µM in the assay with HCT-116, 2.5 µM in the assay on A549 and 4.4 µM in the assay with MCF7.

Regarding `COC(=O)C[C@@H]1CS[C@]2(C(=O)Nc3cccc(Br)c32)[C@H](c2ccc(Br)cc2)[C@H]1C=O`, the IC50 in the assay on HCT-116 came out at 17.3 µM; with A549, 11.2 µM; in the assay on MCF7 it was 8.5 µM.

In the case of `O=C1C[C@@H]2CS[C@]3(C(=O)Nc4cccc(Br)c43)[C@H](c3ccc(Br)cc3)[C@H]2CN1c1ccc(F)cc1`, the IC50 was found to be 10.5 µM in the assay with HCT-116, 4.4 µM with A549 and 4 µM with MCF7.

Take `O=C1C[C@@H]2CS[C@]3(C(=O)Nc4cccc(Br)c43)[C@H](c3ccc(Br)cc3)[C@H]2CN1c1ccccc1F`: the IC50 in the assay with HCT-116 came to 9.3 µM; in the assay with A549, 2.3 µM; in the assay with MCF7, 4.6 µM.

With `O=C1C[C@@H]2CS[C@]3(C(=O)Nc4cccc(Br)c43)[C@H](c3ccc(Br)cc3)[C@H]2CN1c1ccc(-c2ccccc2)cc1`, the IC50 with HCT-116 is 5.6 µM; in the assay with A549, 4.1 µM; with MCF7, 6.9 µM.

In the case of `CCN(CC)c1ccc(N2C[C@H]3[C@@H](CS[C@]4(C(=O)Nc5cccc(Br)c54)[C@@H]3c3ccc(Br)cc3)CC2=O)cc1`, the values for the IC50 with HCT-116, with A549 and in the assay on MCF7 were 2.4 µM, 2.9 µM and 1.8 µM, respectively.

Regarding `CCOc1cccc(N2C[C@H]3[C@@H](CS[C@]4(C(=O)Nc5cccc(Br)c54)[C@@H]3c3ccc(Br)cc3)CC2=O)c1`, the values for the IC50 in the assay with HCT-116, in the assay with A549 and in the assay with MCF7 were 8.5 µM, 4.5 µM and 3.6 µM, respectively.
